The numbers were not newly measured in patent US20050089572A1, “Controlled release drug delivery system of pravastatin” (priority 2002, published 2005), which cites them from elsewhere.

Structures are written as SMILES.

The conditions of the series: pH 3 or less as found in the stomach; degrades to lactone and 3-α-hydroxy-isopravastatin.

For the compound `CC[C@H](C)C(=O)O[C@H]1C[C@H](O)C=C2C=C[C@H](C)[C@H](CC[C@@H](O)C[C@@H](O)CC(=O)O)[C@H]21` [Pravastatin sodium, (+)-(3R, 5R)-3,5-dihydroxy-7-[(1S,2S,6S,8S,8aR)-6-hydroxy-2-methyl-8-[(S)-2-methylbutyryloxy]-1,2,6,7,8,8a-hexahydro-1-naphthyl] heptanoate], the “stability at low pH” value was “very unstable”.
